Columns and labels:
[1] = biological target: T1, SIK2 (Homo sapiens, UniProt Q9H0K1); assay: 33P radioactive kinase assay, SIK2; format: biochemical; also: AMARA 5 µM, 10 µM ATP
T1 construct: purchased ThermoFisher Scientific PV4792
Procedure: (§1) The principle of the ^33P radioactive kinase assay consists in measuring the incorporated ^33P into the substrate AMARA peptide when phosphorylated by SIK1, SIK2 or SIK3 using [^33P]-g-ATP, which correlates with kinase activity.
(§2) The test compounds are prepared as a serial dilution of 10 point dose responses with 1/5 dilution steps in 100% DMSO starting from 2 mM highest concentration, diluted 1/20 in water and 5 μL is transferred to the assay plates (Greiner, Cat #651201).
(§3) 1% DMSO and 10 μM staurosporine final concentrations are used as negative and positive controls.
(§4) 11 μL of enzyme-substrate mixture is added on the assay plates. The reactions are started by adding 9 μL ATP mixture, consisting of non-labeled and ^33P-labeled ATP, on the assay plates.
(§5) The reactions are stopped by adding 25 μL phosphoric acid (150 mM) to the reactions.
(§6) The completely terminated kinase reactions are transferred using a harvester on pre-wetted UniFilter-96 plates (UniFilter-96 GF/B, PerkinElmer Inc., Cat #6005177).
(§7) After harvesting the kinase reactions, the filter plates are washed 6 times with phosphoric acid (75 mM). The back of the UniFilter-96 plates are sealed and 40 μL MicroScint-20 (PerkinElmer Inc., Cat #6013621) is added to each well. The top of the plates are sealed with TopSeal-A. Read-out is performed with a TopCount instrument (PerkinElmer Inc.).
(§8) Raw data are generated following the read-out performed on the TopCount, plotted to generate dose response curves to calculate percentage inhibition (PIN) and average IC50 for each SIK homologue which are reported in the table below.

[2] = system: LPS-induced TNFα in monocyte-derived macrophages; assay: MdM assay: LPS-triggered TNFα (ELISA); format: cell-based, human; conditions: Macrophage; human MdM; LPS 200 ng/mL; supernatant after 20 h; inhibition of TNFα; read-out: TNFα EC50
Procedure: This assay evaluates illustrative compounds of the invention for their inhibition of LPS-induced TNFα and LPS triggered IL-10 secretion in monocyte-derived macrophages. PBMCs are isolated from human blood samples (buffycoats). The buffy coat is aseptically transferred into a 50 mL Falcon tube, and diluted 1/2 in PBS. Falcon tubes are filled with 20 mL LymphoprepTM, on top of which 25 mL of the buffy coat is carefully added, tubes are centrifuged for 35 min at 400 g in temperature controlled centrifuge, without brake, at 25° C. PBMCs are aspirated from the white interface layer between sample and LymphoprepTM. PBMCs are washed five times in PBS. […] PBMCs are centrifuged at 300×g for 10 min and resuspended at a density of 1.0*10^7 cells/80 μL Miltenyi buffer (PBS, pH 7.4, 1% FBS, 2 mM EDTA). Starting from this point of the protocol all steps are performed on ice. 20 μL of CD14+ micro-beads are added per 1.0*10^7 cells, the tube is mixed and incubated for 15 min in the fridge at 4° C. Cell suspension volume is adjusted to total volume of 100 mL using Miltenyi buffer, mixed gently and subsequently centrifuged for 10 min at 300×g. Supernatant is discarded and cell pellet is resuspended in 12 mL of Miltenyi buffer. Four LS columns are placed in the MACS Separator (magnet) from Miltenyi Biotec, and are prewet by rinsing with 3 mL of MACS buffer per column. Three mL of cell suspension is added onto the column (max 1*10^8 of labelled cells/column), and columns are subsequently washed 3 times with 3 mL of Miltenyi buffer. The columns are removed from the magnets, and 5 mL of Miltenyi buffer are added to the column to flush out the CD14+ fraction by pushing the plunger into the column. The flushed fractions are collected in a fresh 50 mL Falcon and volume is adjusted to 30 mL using Miltenyi buffer, cells are centrifuged for 10 min at 300×g. The obtained cell pellet is resuspended in 10 mL RPMI w/o FBS, and cell density is determined using a hematologic analyser (Sysmex XS-500i). […] On day 10, MdMs are triggered and compound is added. A compound dilution plate is made in 100% DMSO by 3-fold dilution of 10 mM stock solution. An intermediate dilution plate (10× final concentration) is made by diluting the compound dilution plate […] in RPMI medium. Medium is carefully removed from cell plates using multichannel pipette, and replaced by 80 μL fresh medium. 10 μL of the 10× final concentration compound is added to the cells and incubated for 1 hour at 37° C. before addition of trigger. No trigger conditions/trigger conditions are spiked with equal final DMSO concentrations of 0.2% DMSO. 10 μL of 10×LPS (final conc. 200 ng/mL) solution are added to all wells except for the 'no trigger wells' where 10 μL medium is added. Supernatant is collected after 2 h (IL-10 determination) and after 20 h (TNFα determination) of LPS triggering. […] The plate is then washed once with PBST (PBS+0.05% Tween20) and once with PBS followed by the addition of 100 μL of blocking buffer (1% Bovine Serum Albumin (BSA) -5% Sucrose) and plates are sealed and incubated for at least 4 h at RT. After washing the plate once with PBST and once with PBS, 40 μL of standard or sample are added (TNFα standard curve is prepared using a 1/2 serial dilution starting from 16000 pg/mL; dilutions are made in dilution buffer (PBS+1% BSA)). Plates are washed twice with PBST, and once with PBS, after which 35 μL of the detection antibody is added (final concentration 0.25 μg/mL diluted in dilution buffer) and plates are incubated for at least 2 h at RT. Plates are washed twice with PBST, and once with PBS, where after 35 μL of Strep-HRP conjugate (0.5 μg/mL final concentration diluted in dilution buffer) is added. […] Plates are washed twice with PBST, and once with PBS. Thereafter, 50 μL of luminol substrate is added to each well (prepared according to manufacturer's instructions), and incubated for 5 min at RT protected from light.

[3] = biological target: T2, SIK1 (Homo sapiens, UniProt P57059); assay: 33P radioactive kinase assay, SIK1; format: biochemical
T2 construct: purchased Carna Biosciences 02-131
Procedure: as §1, §2, §3, §4, §5, §6, §7, §8

[4] = biological target: T3, SIK3 (Homo sapiens, UniProt Q9Y2K2); assay: 33P radioactive kinase assay, SIK3; format: biochemical; conditions: 33P radioactive assay; AMARA 7 μM; 15 μM ATP; 80 min; average IC50
T3 construct: purchased SignalChem S12-11G-100
Procedure: as §1, §2, §3, §4, §5, §6, §7, §8

[5] = biological target: T3, SIK3; assay: ADP-Glo kinase assay, SIK3; format: biochemical
Method in brief: (§9)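 Luminescent ADP-formation read-out: enzyme–substrate mix + ATP, 120 min RT; ATP depletion 40 min RT; ADP→ATP conversion with luciferase/luciferin 30 min RT. Controls: 1% DMSO (negative), 10 μM staurosporine final (positive).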

[6] = biological target: T1, SIK2; assay: ADP-Glo kinase assay, SIK2; format: biochemical
Method in brief: as §9

[7] = biological target: T2, SIK1; assay: ADP-Glo kinase assay, SIK1; format: biochemical
Method in brief: as §9

T2 sequence (P57059 whole entry): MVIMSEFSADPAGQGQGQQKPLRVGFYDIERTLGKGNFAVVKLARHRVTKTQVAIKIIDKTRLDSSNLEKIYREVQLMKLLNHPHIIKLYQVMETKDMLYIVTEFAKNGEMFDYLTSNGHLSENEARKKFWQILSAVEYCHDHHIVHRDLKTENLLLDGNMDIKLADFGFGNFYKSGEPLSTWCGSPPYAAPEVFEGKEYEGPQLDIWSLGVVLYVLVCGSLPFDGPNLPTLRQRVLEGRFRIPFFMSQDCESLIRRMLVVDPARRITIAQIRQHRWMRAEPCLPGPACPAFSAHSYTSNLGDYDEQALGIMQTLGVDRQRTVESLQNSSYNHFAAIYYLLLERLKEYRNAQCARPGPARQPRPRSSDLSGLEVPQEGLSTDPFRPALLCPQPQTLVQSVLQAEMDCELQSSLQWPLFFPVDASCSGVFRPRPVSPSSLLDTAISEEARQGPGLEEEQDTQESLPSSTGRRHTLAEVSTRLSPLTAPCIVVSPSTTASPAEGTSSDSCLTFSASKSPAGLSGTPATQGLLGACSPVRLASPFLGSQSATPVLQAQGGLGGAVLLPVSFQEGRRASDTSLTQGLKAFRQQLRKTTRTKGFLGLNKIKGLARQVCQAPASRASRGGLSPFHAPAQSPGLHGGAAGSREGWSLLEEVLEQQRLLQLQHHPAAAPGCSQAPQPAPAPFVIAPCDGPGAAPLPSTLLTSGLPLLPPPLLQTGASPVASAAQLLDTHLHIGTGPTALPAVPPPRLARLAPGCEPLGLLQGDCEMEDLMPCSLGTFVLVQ
T1 sequence (Q9H0K1 whole entry): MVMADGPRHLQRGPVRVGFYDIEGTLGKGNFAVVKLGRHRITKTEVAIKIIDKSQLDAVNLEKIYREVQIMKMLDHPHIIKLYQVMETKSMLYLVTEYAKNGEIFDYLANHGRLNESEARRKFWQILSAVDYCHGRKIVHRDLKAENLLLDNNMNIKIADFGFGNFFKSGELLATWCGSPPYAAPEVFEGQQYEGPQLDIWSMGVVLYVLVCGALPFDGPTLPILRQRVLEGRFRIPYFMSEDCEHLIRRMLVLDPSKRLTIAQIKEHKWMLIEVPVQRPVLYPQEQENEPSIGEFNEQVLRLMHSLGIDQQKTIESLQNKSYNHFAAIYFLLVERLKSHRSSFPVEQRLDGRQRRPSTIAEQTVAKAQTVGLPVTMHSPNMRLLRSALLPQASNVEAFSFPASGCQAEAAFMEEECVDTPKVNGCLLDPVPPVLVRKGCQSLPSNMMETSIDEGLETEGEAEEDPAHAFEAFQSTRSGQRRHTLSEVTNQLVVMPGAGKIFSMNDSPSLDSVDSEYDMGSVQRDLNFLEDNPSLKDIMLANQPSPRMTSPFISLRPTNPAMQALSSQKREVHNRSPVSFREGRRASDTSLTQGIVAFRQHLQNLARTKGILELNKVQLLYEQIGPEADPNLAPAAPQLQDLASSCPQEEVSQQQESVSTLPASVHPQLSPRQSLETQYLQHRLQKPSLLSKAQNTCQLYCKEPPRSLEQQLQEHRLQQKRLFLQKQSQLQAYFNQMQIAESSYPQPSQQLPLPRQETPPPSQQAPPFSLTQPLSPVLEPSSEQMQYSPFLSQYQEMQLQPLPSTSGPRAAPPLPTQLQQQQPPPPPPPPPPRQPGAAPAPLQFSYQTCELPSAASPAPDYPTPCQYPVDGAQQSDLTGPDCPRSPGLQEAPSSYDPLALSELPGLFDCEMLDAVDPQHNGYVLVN
T3 sequence (Q9Y2K2 59-365 limits assumed): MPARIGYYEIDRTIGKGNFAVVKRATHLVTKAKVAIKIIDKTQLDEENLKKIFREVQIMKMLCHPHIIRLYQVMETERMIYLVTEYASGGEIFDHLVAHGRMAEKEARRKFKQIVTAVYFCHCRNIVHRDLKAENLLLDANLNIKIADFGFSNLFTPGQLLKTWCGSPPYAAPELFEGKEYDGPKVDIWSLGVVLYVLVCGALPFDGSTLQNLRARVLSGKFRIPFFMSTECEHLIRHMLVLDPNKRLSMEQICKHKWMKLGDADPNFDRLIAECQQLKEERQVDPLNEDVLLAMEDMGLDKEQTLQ

| IC50 [1] | EC50 [2] | IC50 [3] | IC50 [4] | IC50 [5] | IC50 [6] | IC50 [7] | SMILES |
| --- | --- | --- | --- | --- | --- | --- | --- |
| 100 to 500 nM | > 5000 nM | > 500 nM | 10 to 100 nM |  |  |  | COc1cc(-c2cnc3cc(C4CCN(C(=O)OC(C)(C)C)CC4)ccn23)cc(OC)c1C(=O)NCC(F)(F)F [Cpd 16, tert-butyl 4-[3-[3,5-dimethoxy-4-(2,2,2-trifluoroethylcarbamoyl)phenyl]imidazo[1,2-a]pyridin-7-yl]piperidine-1-carboxylate] |
| > 500 nM | 100 to 1000 nM | > 500 nM | 10 to 100 nM | 10 to 100 nM | > 500 nM | > 500 nM | COc1cc(-c2cnc3cc(C(C)(C)C#N)ccn23)cc(OC)c1C(=O)NCC(F)(F)F [Cpd 17, 4-[7-(1-cyano-1-methyl-ethyl)imidazo[1,2-a]pyridin-3-yl]-2,6-dimethoxy-N-(2,2,2-trifluoroethyl)benzamide] |
| > 500 nM | 1000 to 5000 nM | > 500 nM | 10 to 100 nM | 10 to 100 nM | > 500 nM | > 500 nM | COc1cc(-c2cnc3cc(C(C)(C)C#N)ccn23)cc2c1C(=O)NCC2 [Cpd 20, 2-[3-(8-methoxy-1-oxo-3,4-dihydro-2H-isoquinolin-6-yl)imidazo[1,2-a]pyridin-7-yl]-2-methyl-propanenitrile] |
| 100 to 500 nM | 1000 to 5000 nM | > 500 nM | 10 to 100 nM | 10 to 100 nM | 100 to 500 nM | > 500 nM | COc1cc(-c2cnc3cc(C4CCCN(C)C4)ccn23)cc(OC)c1C(=O)NCC(F)(F)F (stereo not shown) [Cpd 24, 2,6-dimethoxy-4-[7-(1-methyl-3-piperidyl)imidazo[1,2-a]pyridin-3-yl]-N-(2,2,2-trifluoroethyl)benzamide] |
| > 500 nM | 1000 to 5000 nM | > 500 nM | 10 to 100 nM | 10 to 100 nM | > 500 nM | > 500 nM | COc1cc(-c2cnc3cc(C(C)(C)C#N)ccn23)cc2c1C(=O)N(CC(F)(F)F)CC2 [Cpd 25, 2-[3-[8-methoxy-1-oxo-2-(2,2,2-trifluoroethyl)-3,4-dihydroisoquinolin-6-yl]imidazo[1,2-a]pyridin-7-yl]-2-methyl-propanenitrile] |
| 100 to 500 nM | 100 to 1000 nM | > 500 nM | 10 to 100 nM | 0.01 to 10 nM | 100 to 500 nM | > 500 nM | COc1cc(-c2cnc3cc(C(C)C#N)ccn23)cc(OC(F)F)c1C(=O)NC1CC1 (stereo not shown) [Cpd 26, 4-[7-(1-cyanoethyl)imidazo[1,2-a]pyridin-3-yl]-N-cyclopropyl-2-(difluoromethoxy)-6-methoxy-benzamide] |
| > 500 nM | 100 to 1000 nM | > 500 nM | 10 to 100 nM | 0.01 to 10 nM | 100 to 500 nM | > 500 nM | COc1cc(-c2cnc3cc(C4(C#N)CCC4)ccn23)cc(OC(F)F)c1C(=O)NC1CC1 [Cpd 34, 4-[7-(1-cyanocyclobutyl)imidazo[1,2-a]pyridin-3-yl]-N-cyclopropyl-2-(difluoromethoxy)-6-methoxy-benzamide] |

— US12391679B2, “Benzamide-substituted bicyclic imidazo- and pyrazolo-fused -pyridine, -pyrimide, and -pyridazine compounds for treatment of inflammatory diseases” (ONCO3R Therapeutics BV, priority 2019, dated 2025)
